US20140073634A1 (Institute For Applied Cancer Science/The University of …, priority 2012, published 2014)

Tested on: 293T-HRE-GFP-luc cells
Experiment: Cell-based reporter assay for IC50 determinations (HRE-luciferase, hypoxia)
Settings: 6 h, 6 hrs hypoxia (1% O2), luminescence
How it was run: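 293T-HRE-GFP-luc cells were pre-incubated with serially diluted compounds for 30 min under normoxia, then held 6 hrs in hypoxia (1% O2, 37° C). HRE-driven luciferase read by Steadylite Plus luminescence; IC50 from four-parameter logistic fit.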

Row | Structure (SMILES) | IC50 [nM]
1 | O=C(c1cccc(Cn2cc(-c3nc(-c4ccc(OC(F)(F)F)cc4)no3)ccc2=O)c1)N1CCOCC1 [Example 114, 1-(3-(morpholine-4-carbonyl)benzyl)-5-(3-(4-(trifluoromethoxy)phenyl)-1,2,4-oxadiazol-5-yl)pyridin-2(1H)-one] | < 100
2 | CN1CCN(C(=O)c2cccc(Cn3cc(-c4nc(-c5ccc(OC(F)(F)F)cc5)no4)ccc3=O)c2)CC1 [Example 115, 1-(3-(4-methylpiperazine-1-carbonyl)benzyl)-5-(3-(4-(trifluoromethoxy)phenyl)-1,2,4-oxadiazol-5-yl)pyridin-2(1H)-one] | < 100
3 | CN1CCN(c2cccc(Cn3cc(-c4nc(-c5ccc(OC(F)(F)F)cc5)no4)ccc3=O)c2)CC1 [Example 116, 1-(3-(4-methylpiperazin-1-yl)benzyl)-5-(3-(4-(trifluoromethoxy)phenyl)-1,2,4-oxadiazol-5-yl)pyridin-2(1H)-one] | < 100
4 | COC(=O)c1cc(Cn2nc(-c3nc(-c4ccc(OC(F)(F)F)cc4)no3)ccc2=O)ccn1 [Example 117, methyl 4-((6-oxo-3-(3-(4-(trifluoromethoxy)phenyl)-1,2,4-oxadiazol-5-yl)pyridazin-1(6H)-yl)methyl)picolinate] | 1000 to 10000
5 | CS(=O)(=O)c1cccc(Cn2nc(-c3nc(-c4ccc(OC(F)(F)F)cc4)no3)ccc2=O)c1 [Example 118, 2-(3-(methylsulfonyl)benzyl)-6-(3-(4-(trifluoromethoxy)phenyl)-1,2,4-oxadiazol-5-yl)pyridazin-3(2H)-one] | < 100
6 | NS(=O)(=O)c1cccc(Cn2nc(-c3nc(-c4ccc(OC(F)(F)F)cc4)no3)ccc2=O)c1 [Example 119] | < 100
7 | N#Cc1cccc(Cn2nc(-c3nc(-c4ccc(OC(F)(F)F)cc4)no3)ccc2=O)c1 [Example 120, 3-((6-oxo-3-(3-(4-(trifluoromethoxy)phenyl)-1,2,4-oxadiazol-5-yl)pyridazin-1(6H)-yl)methyl)benzonitrile] | < 100
8 | COc1cccc(Cn2cc(-c3nc(-c4ccc(OC(F)(F)F)cc4)no3)ccc2=O)c1 [Example 121, 1-(3-methoxybenzyl)-5-(3-(4-(trifluoromethoxy)phenyl)-1,2,4-oxadiazol-5-yl)pyridin-2(1H)-one] | < 100
9 | N#Cc1cccc(Cn2cc(-c3nc(-c4ccc(OC(F)(F)F)cc4)no3)ccc2=O)c1 [Example 122, 3-((2-oxo-5-(3-(4-(trifluoromethoxy)phenyl)-1,2,4-oxadiazol-5-yl)pyridin-1(2H)-yl)methyl)benzonitrile] | < 100
10 | CS(=O)(=O)c1cccc(Cn2cc(-c3nc(-c4ccc(OC(F)(F)F)cc4)no3)ccc2=O)c1 [Example 123, 1-(3-(methylsulfonyl)benzyl)-5-(3-(4-(trifluoromethoxy)phenyl)-1,2,4-oxadiazol-5-yl)pyridin-2(1H)-one] | < 100
11 | NS(=O)(=O)c1cccc(Cn2cc(-c3nc(-c4ccc(OC(F)(F)F)cc4)no3)ccc2=O)c1 [Example 124, 3-((2-oxo-5-(3-(4-(trifluoromethoxy)phenyl)-1,2,4-oxadiazol-5-yl)pyridin-1(2H)-yl)methyl)benzenesulfonamide] | < 100
12 | CN1CCN(C(=O)c2cc(Cn3nc(-c4nc(-c5ccc(OC(F)(F)F)cc5)no4)ccc3=O)ccn2)CC1 [Example 125, 2-((2-(4-methylpiperazine-1-carbonyl)pyridin-4-yl)methyl)-6-(3-(4-(trifluoromethoxy)phenyl)-1,2,4-oxadiazol-5-yl)pyridazin-3(2H)-one] | 1000 to 10000
13 | COC(=O)c1cc(Cn2nc(-c3nc(-c4ccc(OC(F)(F)F)cc4)no3)ccc2=O)ccc1F [Example 126, methyl 2-fluoro-5-((6-oxo-3-(3-(4-(trifluoromethoxy)phenyl)-1,2,4-oxadiazol-5-yl)pyridazin-1(6H)-yl)methyl)benzoate] | < 100
14 | O=c1c(-c2nc(-c3ccc(OC(F)(F)F)cc3)no2)cccn1Cc1ccnc(N2CCOCC2)c1 [Example 127, 1-((2-morpholinopyridin-4-yl)methyl)-3-(3-(4-(trifluoromethoxy)phenyl)-1,2,4-oxadiazol-5-yl)pyridin-2(1H)-one] | 100 to 1000
15 | Cc1ccc(-c2nc(-c3ccc(OC(F)(F)F)cc3)no2)c(=O)n1Cc1cccc(C(=O)N(C)C)c1 [Example 128, N,N-dimethyl-3-((6-methyl-2-oxo-3-(3-(4-(trifluoromethoxy)phenyl)-1,2,4-oxadiazol-5-yl)pyridin-1(2H)-yl)methyl)benzamide] | 100 to 1000
16 | O=C(c1cc(Cn2nc(-c3nc(-c4ccc(OC(F)(F)F)cc4)no3)ccc2=O)ccc1F)N1CCOCC1 [Example 129, 2-{[4-fluoro-3-(morpholine-4-carbonyl)phenyl]methyl}-6-{3-[4-(trifluoromethoxy)phenyl]-1,2,4-oxadiazol-5-yl}-2,3-dihydropyridazin-3-one] | 100 to 1000

Row | Structure (SMILES) | IC50 [nM]
17 | CN1CCN(C(=O)c2cc(Cn3nc(-c4nc(-c5ccc(OC(F)(F)F)cc5)no4)ccc3=O)ccc2F)CC1 [Example 130, 2-{[4-fluoro-3-(4-methylpiperazine-1-carbonyl)phenyl]methyl}-6-{3-[4-(trifluoromethoxy)phenyl]-1,2,4-oxadiazol-5-yl}-2,3-dihydropyridazin-3-one] | 100 to 1000
18 | CNC(=O)c1cccc(Cn2nc(-c3nc(-c4ccc(OC(F)(F)F)cc4)no3)ccc2=O)c1 [Example 131, N-methyl-3-[(6-oxo-3-{3-[4-(trifluoromethoxy)phenyl]-1 2 4-oxadiazol-5-yl}-1 6-dihydropyridazin-1-yl)methyl]benzamide] | < 100
19 | NC(=O)c1cccc(Cn2nc(-c3nc(-c4ccc(OC(F)(F)F)cc4)no3)ccc2=O)c1 [Example 132, 3-[(6-oxo-3-{3-[4-(trifluoromethoxy)phenyl]-1,2,4-oxadiazol-5-yl}-1,6-dihydropyridazin-1-yl)methyl]benzamide] | < 100
20 | CNC(=O)c1cccc(Cn2cc(-c3nc(-c4ccc(OC(F)(F)F)cc4)no3)ccc2=O)c1 [Example 133, N-methyl-3-[(2-oxo-5-{3-[4-(trifluoromethoxy)phenyl]-1,2,4-oxadiazol-5-yl}-1,2-dihydropyridin-1-yl)methyl]benzamide] | < 100
21 | CN(C)C(=O)c1cccc(Cn2cc(-c3nc(-c4ccc(OC(F)(F)F)cc4)no3)ccc2=O)c1 [Example 134, N,N-dimethyl-3-[(2-oxo-5-{3-[4-(trifluoromethoxy)phenyl]-1,2,4-oxadiazol-5-yl}-1,2-dihydropyridin-1-yl)methyl]benzamide] | < 100
22 | O=c1ccc(-c2nc(-c3ccc(OC(F)(F)F)cc3)no2)cn1Cc1ccc(F)c(Br)c1 [Example 135, 1-[(3-bromo-4-fluorophenyl)methyl]-5-{3-[4-(trifluoromethoxy)phenyl]-1,2,4-oxadiazol-5-yl}-1,2-dihydropyridin-2-one] | 100 to 1000
23 | COc1ccc(Cn2cc(-c3nc(-c4ccc(OC(F)(F)F)cc4)no3)ccc2=O)cc1 [Example 136, 1-[(4-methoxyphenyl)methyl]-5-{3-[4-(trifluoromethoxy)phenyl]-1,2,4-oxadiazol-5-yl}-1,2-dihydropyridin-2-one] | < 100
24 | CN1CCN(c2cc(Cn3cc(-c4nc(-c5ccc(OC(F)(F)F)cc5)no4)ccc3=O)ccc2F)CC1 [Example 137, 1-{[4-fluoro-3-(4-methylpiperazin-1-yl)phenyl]methyl}-5-{3-[4-(trifluoromethoxy)phenyl]-1,2,4-oxadiazol-5-yl}-1,2-dihydropyridin-2-one] | < 100
25 | O=c1ccc(-c2nc(-c3ccc(OC(F)(F)F)cc3)no2)cn1Cc1ccc(F)c(N2CCOCC2)c1 [Example 138, 1-{[4-fluoro-3-(morpholin-4-yl)phenyl]methyl}-5-{3-[4-(trifluoromethoxy)phenyl]-1,2,4-oxadiazol-5-yl}-1,2-dihydropyridin-2-one] | < 100
26 | O=c1ccc(-c2nc(-c3ccc(OC(F)(F)F)cc3)no2)cn1Cc1ccc(F)c(N2CCC(O)CC2)c1 [Example 139, 1-{[4-fluoro-3-(4-hydroxypiperidin-1-yl)phenyl]methyl}-5-{3-[4-(trifluoromethoxy)phenyl]-1,2,4-oxadiazol-5-yl}-1,2-dihydropyridin-2-one] | < 100
27 | CNC(=O)c1cc(Cn2nc(-c3nc(-c4ccc(OC(F)(F)F)cc4)no3)ccc2=O)ccc1F [Example 140, 2-fluoro-N-methyl-5-[(6-oxo-3-{3-[4-(trifluoromethoxy)phenyl]-1,2,4-oxadiazol-5-yl}-1,6-dihydropyridazin-1-yl)methyl]benzamide] | < 100
28 | O=c1ccc(-c2nc(-c3ccc(OC(F)(F)F)cc3)no2)cn1Cc1cccc(Br)c1 [Example 141, 1-[(3-bromophenyl)methyl]-5-{3-[4-(trifluoromethoxy)phenyl]-1,2,4-oxadiazol-5-yl}-1,2-dihydropyridin-2-one] | 100 to 1000
29 | O=C(Cc1cccc(Cn2nc(-c3nc(-c4ccc(OC(F)(F)F)cc4)no3)ccc2=O)c1)N1CCOCC1 [Example 142, 2-({3-[2-(morpholin-4-yl)-2-oxoethyl]phenyl}methyl)-6-{3-[4-(trifluoromethoxy)phenyl]-1,2,4-oxadiazol-5-yl}-2,3-dihydropyridazin-3-one] | 100 to 1000
30 | CN1CCN(C(=O)Cc2cccc(Cn3nc(-c4nc(-c5ccc(OC(F)(F)F)cc5)no4)ccc3=O)c2)CC1 [Example 143, 2-({3-[2-(4-methylpiperazin-1-yl)-2-oxoethyl]phenyl}methyl)-6-{3-[4-(trifluoromethoxy)phenyl]-1,2,4-oxadiazol-5-yl}-2,3-dihydropyridazin-3-one] | 100 to 1000
31 | O=c1ccc(-c2nc(-c3ccc(OC(F)(F)F)cc3)no2)cn1Cc1cccc(N2CCOCC2)c1 [Example 144, 1-{[3-(morpholin-4-yl)phenyl]methyl}-5-{3-[4-(trifluoromethoxy)phenyl]-1,2,4-oxadiazol-5-yl}-1,2-dihydropyridin-2-one] | < 100
32 | CN(C)c1cccc(Cn2cc(-c3nc(-c4ccc(OC(F)(F)F)cc4)no3)ccc2=O)c1 [Example 145, 1-{[3-(dimethylamino)phenyl]methyl}-5-{3-[4-(trifluoromethoxy)phenyl]-1,2,4-oxadiazol-5-yl}-1,2-dihydropyridin-2-one] | < 100
